Values quoted from earlier work in article PMC9050811 (RSC Advances, 2020).

Experiments:
MTB = details: cited from earlier work
DNA supercoiling = details: read-out: IC50 in the DNA supercoiling assay; cited from earlier work
MTB H37Rv = details: cited from earlier work

| SMILES | MTB MIC (MTB) [µM] | IC50 (DNA supercoiling) [nM] | MTB MIC against H37Rv (MTB H37Rv) [µg/mL] |
| --- | --- | --- | --- |
| COc1cnc2ccc(=O)n(CCN3CCN(C(=O)Nc4ccc([N+](=O)[O-])cc4)CC3)c2c1 [4-(2-(7-methoxy-2-oxo-1,5-naphthyridin-1-(2H)-yl)ethyl)-N-(4-nitrophenyl)piperazine-1-carboxamide] | 3.45 | 290 | – |
| O=S(=O)(c1ccccc1)n1cc(CN2CCN(c3nc4ccccc4c4ccccc34)CC2)nn1 [G, 6-(4-((1-(phenylsulfonyl)-1H-1,2,3-triazol-4-yl)methyl)piperazin-1-yl)phenanthridine] | – | – | 1.56 |
| c1ccc(N2CCN(c3nc4ccccc4c4ccccc34)CC2)nc1 [H, 6-(4-(pyridin-2-yl)piperazin-1-yl)phenanthridine] | – | – | 1.56 |
| O=c1nc(N2CCN(C(=S)Nc3ccc(Cl)cc3)CC2)sc2ccc([N+](=O)[O-])cc12 [N-(4-chlorophenyl)-4-(6-nitro-4-oxo-4H-benzo[e][1,3]thiazin-2-yl)piperazine-1-carbothioamide] | 4.41 | 510 | – |
